Test results: US9980928B2, “Hydroxy aliphatic substituted phenyl aminoalkyl ether derivatives” (PROUS INSTITUTE FOR BIOMEDICAL RESEARCH, S.A., priority 2012, dated 2018)
Values joined by “and” are separate entries in the source; they are usually repeats but may differ in a detail not shown here. Equal entries are not always repeated.

Assays:
[1] = molecular target: uptake of serotonin (Homo sapiens, UniProt P31645); assay: Uptake inhibition of serotonin, cellular assay; assay type: cell-based; conditions: read-out: Serotonin reuptake inhibition (IC50 μM)
Experimental: The effect of the compounds of the present invention as inhibitors of the uptake of norepinephrine and serotonin in cellular assays at concentrations that range from […] to 1 nM is determined following the methods described in Galli, A. et al. J Exp Biol 1995, 198(Pt. 10): 2197-212 and Gu, H. et al. J Biol Chem. 1994, 269(10):7124-30.

[2] = system: mice; assay: Passive avoidance test; assay type: in vivo; conditions: 30 mg/kg i.p., test phase 24 hours later
Text: The passive avoidance task is a fear-aggravated test used to evaluate learning and memory in rodent models of CNS disorders. In this test, subjects learn to avoid an environment in which an aversive stimulus (such as a footshock) was previously delivered.
The animals can freely explore the light and dark compartments of the chamber and a mild footshock is delivered in one side of the compartment. Animals eventually learn to associate certain properties of the chamber with the footshock. The latency to pass the gate in order to avoid the stimulus is used as an indicator of learning and memory. The passive avoidance task is useful for evaluating the effect of novel chemical entities on learning and memory, as well as studying the mechanisms involved in cognition (Cappon, G. D. Eur J Pharmacol. 2008 579(1-3): 225-8).
A passive avoidance test with Example 2 administered i.p. at 30 mg/kg was conducted to assess the formation of recent and long-term memory (consolidation) using a negative reinforcement (0.6 mA footshock; 2 s).

[3] = system: fmr1 KO mice and wild type mice; assay: Social behavior test in Fragile X (fmr1 KO) mouse model; assay type: in vivo; conditions: 30 mg/kg i.p. acute
Experimental: FIG. 4A plots the time (s) that the test mouse devotes to exploring two cylinders: a first cylinder containing a familiar genotype-matched juvenile stimulus mouse and a second cylinder containing a novel stimulus mouse and the total time of exploration (both cylinders) during a 10 min session. FIG. 4B Plots the percentage of time spent near the two cylinders during the 10 min session. FIG. 4C plots the Discrimination index (time exploring the novel stimulus−time exploring the familiar stimulus/total time of exploration×100).
N=10-12 mice per group. Mice had received an acute i.p. injection of saline (WT 1st bar, fmr1 KO 3rd bar) or 30 mg/kg Example 2 (Wild Type 2nd bar, fmr1 KO 4th bar) 24 h before the session. Data are expressed as mean±S.E.M. Two way ANOVA Treatment effect Φ p<0.05, Genotype x Treatment interaction p<0.05, Bonferroni as post hoc ***p<0.001, **p<0.01, *p<0.05.
Example 2 effects on social disability in a model of Fmr1 KO was performed. Social behavior was examined on an open-field that consisted of an arena (70 cm long×70 cm wide×30 cm high) made of Plexiglas. An overhead camera connected to the video-tracking software SMART (Panlab, Spain) was used to monitor the animal's behavior. The experimental design included three sessions:
1) Habituation session Animals were habituated for 10 min to an arena containing two empty transparent cylinders (30 cm diameter×40 cm high) made of Plexiglas. The cylinders were perforated to have interaction points and were located on two corners of the open field. Time exploring the cylinders was registered along the 10 min duration. After the habituation session mice received an acute injection of either saline or Example 2 (30 mg/kg i.p.) and replaced on their cages. 2) Social interaction 24 h later, animals were replaced to the arena containing the two cylinders, one cylinder was empty and the other one contained a stranger individual (stimulus). The time exploring the two cylinders was registered for 10 minutes. The stimulus individual was always a juvenile mouse (less than two months of age), to avoid the group hierarchy and aggressiveness towards non familiar individuals that show adult male mice. In addition, the stimulus individual was genotype matched with the testing mouse. The position of the stimulus individual was counterbalanced between animals. After the sociability session mice received an acute injection of either saline or Example 2 (30 mg/kg i.p.). 3) Social recognition 24 h later, animals were replaced to the arena containing the two cylinders, one cylinder contained the same stimulus individual presented during the social interaction session (familiar) and the other contained a novel stimulus individual. Both stimuli were juvenile animals and genotype matched. The position of the familiar stimulus remained the same as it was in the social interaction session, and counterbalanced between animals. Once the subject mice finished the test they remained individually housed in a separate cage until the other cage partner finalized the test, to avoid exposition to olfactory cues from stimuli mice. In all cases, those mice from the same cage were never exposed to the same stimuli, either familiar or novel. The time exploring the two cylinders was registered for 10 minutes. The discrimination index was calculated as time exploring the novel stimulus mouse−time exploring the familiar stimulus mouse/total time of exploration×100. The arena and cylinders were deeply cleaned between animals to avoid olfactory cues. All measures of exploration were manually registered by the experimenter blind to genotype and treatment. Exploratory behavior was defined as the animal directing its nose towards the cylinder at a distance of <2 cm. A proximal zone of 14 cm from the cylinders was defined as interaction zone and the time spent in these zones was registered as index of exploratory behavior.

Sequence of uptake of serotonin (P31645 whole entry): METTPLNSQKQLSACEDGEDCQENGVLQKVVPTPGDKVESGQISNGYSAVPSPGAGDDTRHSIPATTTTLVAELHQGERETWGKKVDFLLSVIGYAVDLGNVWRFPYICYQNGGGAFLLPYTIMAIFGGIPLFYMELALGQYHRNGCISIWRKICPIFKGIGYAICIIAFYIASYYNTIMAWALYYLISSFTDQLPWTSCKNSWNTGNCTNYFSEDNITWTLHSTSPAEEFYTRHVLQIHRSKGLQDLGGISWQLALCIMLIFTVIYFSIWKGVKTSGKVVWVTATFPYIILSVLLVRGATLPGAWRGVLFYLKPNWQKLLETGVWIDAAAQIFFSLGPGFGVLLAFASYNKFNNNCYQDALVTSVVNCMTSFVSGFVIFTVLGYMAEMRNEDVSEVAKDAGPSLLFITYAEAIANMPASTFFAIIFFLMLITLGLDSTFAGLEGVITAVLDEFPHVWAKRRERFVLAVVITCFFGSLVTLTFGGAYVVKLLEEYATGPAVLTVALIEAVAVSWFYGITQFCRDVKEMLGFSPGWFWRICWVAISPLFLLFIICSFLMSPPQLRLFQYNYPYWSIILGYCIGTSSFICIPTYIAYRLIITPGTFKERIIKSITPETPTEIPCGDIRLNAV

In the case of `CNCCC(Oc1ccc(CCO)cc1)c1ccccc1.Cl` (single isomer, unassigned) [Example 2, 2-[4-[3-(Methylamino)-1-phenylpropoxy]phenyl]ethanol hydrochloride], the IC50 [1] is reported as 0.328 µM and 0.348 µM, the “time on the platform vs saline-treated group (recent memory formation)” value [2] is reported as “significantly longer time on the platform” and the “time exploring the familiar stimulus (FIG. 4A)” value ([3]; WT and fmr1 KO mice) is reported as “significantly reduced”. For the same compound, the “social behavior alteration / social abnormalities” value ([3]; fmr1 KO mice) was “completely restored”, the “time exploring the novel stimulus mouse” value ([3]; fmr1 KO mice) was “rose at levels comparable to those detected in wild type animals” and the “time spent near the familiar individual (FIG. 4B)” value ([3]; fmr1 KO mice) was “reducing”. The “time spent near the novel stimulus (FIG. 4B)” value ([3]; fmr1 KO mice) was “significantly increased” and the social recognition ([3]; wild type mice) was “did not modify”.
